The text below walks through data of PubChem BioAssay (NCI).

Several values for one entry are separate records, joined by “and”; a condition that tells them apart may be missing. Equal entries are not always repeated.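 In this assay, cells in 96-well plates receive the compound at five concentrations for 48 hours. Endpoints are linearly interpolated between the surrounding concentrations. The concentration for 50% growth inhibition is given as GI50. The concentration for full growth arrest is given as TGI.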

Some test systems named below: OVCAR-5 ovarian; A549 NSCLC; UO-31 renal; HCT-116 colon; UACC-257 melanoma; SK-MEL-5 melanoma; DU-145 prostate; SNB-75 CNS; NCI-H226 lung; MALME-3M melanoma.
Holding throughout (test): inhibition of tumour cell growth, NCI panel, 48 h

`C[N+]1(CCCCN2c3ccccc3Sc3cc(N=[N+]=[N-])ccc32)CCN(C(=O)CCNC(=O)Cc2ccc(C(=O)c3ccccc3)cc2)CC1`: the TGI in the test on OVCAR-5 ovarian is 56.1 µM; in the test with A549 NSCLC, more than 72.6 µM; with UO-31 renal it was 39 µM; in the test with HCT-116 colon, more than 75.4 µM; in the test on UACC-257 melanoma, more than 75.8 µM; in the test with SK-MEL-5 melanoma it was more than 62.6 µM. For the same compound, the TGI in the test with DU-145 prostate is 35.1 µM; with SNB-75 CNS it was 43.3 µM; in the test with NCI-H226 lung, more than 85.7 µM; with MALME-3M melanoma it was 70.8 µM.

As to `O=C1c2c(Br)sc(Br)c2[C@H]2OC(=S)N[C@@H]12`, the TGI is 32.4 µM with OVCAR-5 ovarian; 37.5 µM in the test on A549 NSCLC; 3.34 µM in the test on UO-31 renal; 7.6 µM with HCT-116 colon; 17.1 µM in the test with UACC-257 melanoma; 23.8 µM in the test on SK-MEL-5 melanoma. Moreover, the TGI in the test on DU-145 prostate stood at 26.9 µM; with SNB-75 CNS, 31 µM; in the test with NCI-H226 lung, 33.5 µM; in the test on MALME-3M melanoma, 10.4 µM.

As for `O=C1C=CC(=O)c2c(O)c(N3CCN(c4ncccn4)CC3)c(Cl)c(O)c21`, the TGI came out at 19.8 µM in the test on OVCAR-5 ovarian; 22.6 µM with A549 NSCLC; 4.03 µM in the test with UO-31 renal; 3.14 µM with HCT-116 colon; 3.45 µM in the test with UACC-257 melanoma; 3.79 µM in the test with SK-MEL-5 melanoma. For the same compound, the TGI is 12.9 µM with DU-145 prostate, 21.8 µM in the test on SNB-75 CNS, 44.8 µM in the test on NCI-H226 lung and 3.63 µM with MALME-3M melanoma.

Consider `Nn1nnc2ccccc21`, for which the TGI with OVCAR-5 ovarian, with A549 NSCLC, in the test on UO-31 renal, with HCT-116 colon, with UACC-257 melanoma and with SK-MEL-5 melanoma was more than 100 µM in each case. For the same compound, the TGI in the test on DU-145 prostate, with SNB-75 CNS, in the test with NCI-H226 lung and with MALME-3M melanoma was more than 100 µM throughout.

As to `Cc1ccc2nc(Nc3ccccc3C)c(Nc3ccccc3C)nc2c1`, the TGI with OVCAR-5 ovarian was 47.5 µM; with A549 NSCLC, 49.1 µM; with UO-31 renal it was 60.8 µM; in the test on HCT-116 colon it was 40.2 µM; with UACC-257 melanoma, 72.3 µM; with SK-MEL-5 melanoma it was more than 63.8 µM. Moreover, the TGI is more than 100 µM in the test with DU-145 prostate, more than 96.6 µM in the test with SNB-75 CNS, more than 89.7 µM with NCI-H226 lung and 48.8 µM in the test on MALME-3M melanoma.

For the compound `CCOC(=O)c1c(-c2ccc(OC)cc2)c(C#N)c(=S)n(C2OC(CO)C(O)C(O)C2O)c1C` (configuration not stated), the TGI in the test with OVCAR-5 ovarian, in the test with A549 NSCLC, in the test on UO-31 renal, in the test with HCT-116 colon, with UACC-257 melanoma and with SK-MEL-5 melanoma was more than 100 µM each time. The TGI in the test with DU-145 prostate, with SNB-75 CNS, with NCI-H226 lung and in the test with MALME-3M melanoma was more than 100 µM in each case.

For the compound `COc1ccccc1Cn1c2c(c3cc(O)ccc31)C(=O)c1ccccc1C2=O`, the TGI is 34.1 µM in the test with OVCAR-5 ovarian; more than 100 µM in the test with A549 NSCLC; more than 100 µM in the test with UO-31 renal; more than 100 µM with HCT-116 colon; more than 100 µM with UACC-257 melanoma; more than 100 µM in the test with SK-MEL-5 melanoma. Moreover, the TGI was more than 100 µM in the test on DU-145 prostate, 58.8 µM with SNB-75 CNS, 79 µM in the test with NCI-H226 lung and more than 100 µM with MALME-3M melanoma.

As to `O=C1CCCC2=C1CC1=C(CCCC1=O)N2c1ccc(-c2ccccc2)cc1`, the TGI in the test with OVCAR-5 ovarian, with A549 NSCLC, in the test with UO-31 renal, in the test with HCT-116 colon, in the test with UACC-257 melanoma and in the test with SK-MEL-5 melanoma was more than 100 µM throughout. For the same compound, the TGI was more than 100 µM in the test with DU-145 prostate, more than 67.5 µM with SNB-75 CNS, more than 100 µM with NCI-H226 lung and more than 100 µM with MALME-3M melanoma.

Regarding `CC(=O)Nc1ccc2c(c1)nc1c3ccccc3ccn21`, the TGI with OVCAR-5 ovarian, in the test with A549 NSCLC, with UO-31 renal, in the test on HCT-116 colon, with UACC-257 melanoma and with SK-MEL-5 melanoma was more than 100 µM throughout. Moreover, the TGI in the test on DU-145 prostate, in the test with SNB-75 CNS, in the test with NCI-H226 lung and in the test with MALME-3M melanoma was more than 100 µM throughout.

For the compound `CCC(C)C(NC(=O)C(CCCC[N+](=N)N)NC(=O)C(CCCC[N+](=N)N)NC(=O)c1ccc(OC)cc1)C(=O)NC(CCCC[N+](=N)N)C(=O)N1CCCC1C(=O)NC(CCCCN)C(=O)NC(CC(C)C)C(N)=O` (configuration not stated), the TGI with OVCAR-5 ovarian, in the test with A549 NSCLC, with UO-31 renal, in the test on HCT-116 colon, in the test with UACC-257 melanoma and with SK-MEL-5 melanoma was more than 100 µM in each case. The TGI in the test on DU-145 prostate, in the test with SNB-75 CNS, in the test with NCI-H226 lung and in the test on MALME-3M melanoma was more than 100 µM throughout.

As to `CCCCCc1cc(CCCC)sc1-c1ccco1`, the TGI in the test on OVCAR-5 ovarian was more than 100 µM; in the test with A549 NSCLC it was more than 100 µM; with UO-31 renal it was more than 100 µM; in the test with HCT-116 colon, more than 73 µM; in the test on UACC-257 melanoma, more than 100 µM; in the test on SK-MEL-5 melanoma, more than 100 µM. The TGI in the test on DU-145 prostate, in the test with SNB-75 CNS, with NCI-H226 lung and with MALME-3M melanoma was more than 100 µM throughout.

As to `C=CCN(c1cc(OC)c2[nH]c(C(=O)O)c(C)c2c1[N+](=O)[O-])S(C)(=O)=O`, the TGI with OVCAR-5 ovarian, with A549 NSCLC, in the test with UO-31 renal, in the test on HCT-116 colon, in the test with UACC-257 melanoma and in the test with SK-MEL-5 melanoma was more than 100 µM throughout. Moreover, the TGI in the test with DU-145 prostate was more than 100 µM; in the test with SNB-75 CNS it was more than 100 µM; in the test with NCI-H226 lung it was more than 100 µM; in the test with MALME-3M melanoma it was 52.3 µM.

For the compound `CCOC(=O)OC1(c2ccccc2)CCN(C)CC1`, the TGI with OVCAR-5 ovarian, in the test with A549 NSCLC, in the test with UO-31 renal, in the test on HCT-116 colon, with UACC-257 melanoma and with SK-MEL-5 melanoma was more than 100 µM in each case. The TGI with DU-145 prostate, with SNB-75 CNS, in the test on NCI-H226 lung and in the test with MALME-3M melanoma was more than 100 µM in each case.

For the compound `CC1CCc2sc3[nH]c(=S)n(C)c(=O)c3c2C1` (configuration not stated), the TGI in the test with OVCAR-5 ovarian is more than 100 µM; in the test with A549 NSCLC, more than 100 µM; in the test on UO-31 renal, 33.6 µM; in the test on HCT-116 colon, more than 100 µM; in the test with UACC-257 melanoma, more than 100 µM; with SK-MEL-5 melanoma it was more than 100 µM. Besides, the TGI is more than 100 µM in the test with DU-145 prostate, more than 100 µM in the test on SNB-75 CNS, 87.9 µM in the test with NCI-H226 lung and more than 100 µM in the test on MALME-3M melanoma.

In the case of `O=C(CCl)Nc1ccc(C(=O)N/N=C/c2ccc(Cl)cc2)cc1`, the GI50 in the test on OVCAR-5 ovarian was 1.98 µM; in the test with A549 NSCLC it was 3.96 µM; in the test on HCT-116 colon, 1.57 µM; in the test with UACC-257 melanoma, 12.2 µM; with SK-MEL-5 melanoma, 2.14 µM; with DU-145 prostate, 13.5 µM. The GI50 with MALME-3M melanoma was 3.79 µM. For the same compound, the TGI in the test with OVCAR-5 ovarian was 3.6 µM and 33.1 µM; with A549 NSCLC, 15.2 µM; in the test on UO-31 renal, 10.6 µM; with HCT-116 colon it was 3.18 µM and 3.7 µM; with UACC-257 melanoma it was 3.73 µM and 25 µM; in the test on SK-MEL-5 melanoma it was 4.45 µM and 13.6 µM. Further, the TGI in the test with DU-145 prostate is 8.44 µM and 27 µM; in the test with SNB-75 CNS it was 30.5 µM; with NCI-H226 lung, 35.3 µM; in the test on MALME-3M melanoma, 3.63 µM and 14.2 µM.

For `CC1OC2OC3C(OCC(O)C3O)OC(=O)[C@]34CCC(C)(C)CC3C3=CCC5[C@@]6(C)C[C@H](O)[C@H](OC7OC(CO)C(O)C(O)C7OC7OC(COC(=O)CC(C)(O)CC(=O)OC1C(OC1OC(CO)C(O)C(O)C1O)C2O)C(O)C(O)C7O)[C@@](C)(CO)C6CC[C@@]5(C)[C@]3(C)CC4` (some centres not stated), the TGI came out at 5.7 µM with OVCAR-5 ovarian; 0.293 µM in the test with A549 NSCLC; 5.31 µM in the test with UO-31 renal; 10.3 µM in the test with HCT-116 colon; 4.24 µM with UACC-257 melanoma; 0.272 µM in the test with SK-MEL-5 melanoma. Further, the TGI turned out to be 8.51 µM with DU-145 prostate, 6.79 µM with SNB-75 CNS, 22.7 µM in the test with NCI-H226 lung and 6.96 µM with MALME-3M melanoma.

In the case of `N#Cc1ccnc(C(=O)N2CCCC2C(=O)O)c1` (configuration not stated), the TGI with OVCAR-5 ovarian, in the test on A549 NSCLC, with UO-31 renal, with HCT-116 colon, with UACC-257 melanoma and with SK-MEL-5 melanoma was more than 100 µM each time. Besides, the TGI in the test on DU-145 prostate, with SNB-75 CNS, in the test on NCI-H226 lung and in the test on MALME-3M melanoma was more than 100 µM throughout.

As to `O=C1c2cccnc2C(=O)c2c1nc1ccccc1c2-c1ccc2c3c(nc4ccccc42)C(=O)c2cccnc2-c13`, the TGI came to 33.6 µM in the test with OVCAR-5 ovarian; 6.86 µM in the test with A549 NSCLC; 4.62 µM in the test with UO-31 renal; 1.73 µM in the test with HCT-116 colon; 5.38 µM with UACC-257 melanoma; 1.77 µM in the test on SK-MEL-5 melanoma. Besides, the TGI in the test with DU-145 prostate amounted to 1.34 µM; in the test with SNB-75 CNS, 8.28 µM; in the test on NCI-H226 lung, 7.55 µM; in the test on MALME-3M melanoma, 4.54 µM.

Regarding `COC(=O)[C@@H]1[C@H]2CC[C@]3(C)[C@@H](OC(C)=O)CC[C@H]3[C@@H]2CC[C@H]1C1(C)SCCS1`, the TGI was 50.8 µM in the test on OVCAR-5 ovarian; 74.5 µM with A549 NSCLC; more than 100 µM in the test on UO-31 renal; 46.3 µM with HCT-116 colon; 53.3 µM with UACC-257 melanoma; 21.4 µM in the test with SK-MEL-5 melanoma. In addition, the TGI in the test with DU-145 prostate is more than 100 µM; in the test with SNB-75 CNS it was more than 100 µM; with NCI-H226 lung, 42.3 µM; in the test on MALME-3M melanoma it was 38.9 µM.
